In ChEMBL document CHEMBL1255331, “Emergence of fluoroquinolone resistance in group B streptococcal isolates in Taiwan” (2008):
≈ marks a conversion by molar mass, not a printed value.

Assays:
Type in all cases: functional
[1] = system: Streptococcus sp. 'group B'; assay: Antimicrobial activity against Streptococcus sp. 'group B' isolate 16 harboring gyrA Ser81Leu mutant, parC Ser79Tyr mutant and parE Ileu495Leu mutant gene by agar dilution method
[2] = system: Streptococcus sp. 'group B'; assay: Antimicrobial activity against Streptococcus sp. 'group B' isolate 9 harboring gyrA Ser81Leu mutant, parC Ser79Tyr mutant and parE Ileu495Leu mutant gene by agar dilution method
[3] = system: Streptococcus sp. 'group B'; assay: Antimicrobial activity against Streptococcus sp. 'group B' isolate 1 harboring gyrA Glu85Lys mutant, parC Ser79Tyr mutant and parE Ileu495Leu mutant gene by agar dilution method

SMILES | MIC [1] [µg/mL] | MIC [2] [µg/mL] | MIC [3] [µg/mL]
COc1c(N2C[C@@H]3CCCN[C@@H]3C2)c(F)cc2c(=O)c(C(=O)O)cn(C3CC3)c12 [MOXIFLOXACIN] | 4 (≈ 9.96 µM) | 4 (≈ 9.96 µM) | 2 (≈ 4.98 µM)
C[C@H]1NCc2cc(-c3ccc4c(=O)c(C(=O)O)cn(C5CC5)c4c3OC(F)F)ccc21 [GARENOXACIN] | 2 (≈ 4.69 µM) | 2 (≈ 4.69 µM) | 2 (≈ 4.69 µM)
COc1c(N2CCNC(C)C2)c(F)cc2c(=O)c(C(=O)O)cn(C3CC3)c12 (configuration not stated) [GATIFLOXACIN] | 8 (≈ 21.3 µM) | 4 (≈ 10.7 µM) | 4 (≈ 10.7 µM)
C[C@H]1COc2c(N3CCN(C)CC3)c(F)cc3c(=O)c(C(=O)O)cn1c23.C[C@H]1COc2c(N3CCN(C)CC3)c(F)cc3c(=O)c(C(=O)O)cn1c23.O [LEVOFLOXACIN] | 32 | 16 | 16
N[C@@H]1[C@H]2CN(c3nc4c(cc3F)c(=O)c(C(=O)O)cn4-c3ccc(F)cc3F)C[C@@H]12 [TROVAFLOXACIN] | 16 (≈ 38.4 µM) | 8 (≈ 19.2 µM) | 8 (≈ 19.2 µM)
O=C(O)c1cn(C2CC2)c2cc(N3CCNCC3)c(F)cc2c1=O [CIPROFLOXACIN] | 32 (≈ 96.6 µM) | 64 (≈ 193 µM) | 
